Where only a bound is given, the exact number is not on record here.

The subject of the experiment is HCV 1b genotype replicon. The experiment is described as follows: HCV replicon assay (qRT-PCR or luciferase), genotype 1b. It counts as cell-based. The conditions noted are these: Hepatitis C virus, read-out: Genotype-1b replicon EC50 Range. The source says: HCV replicon cell lines (kindly provided by R. Bartenschlager) isolated from colonies as described by Lohman et al. (Lohman et al. (1999) Science 285: 110-113, expressly incorporated by reference in its entirety) and used for all experiments. The HCV replicon has the nucleic acid sequence set forth in EMBL Accession No.: AJ242651, the coding sequence of which is from nucleotides 1801 to 8406.
The coding sequence of the published HCV replicon was synthesized and subsequently assembled in a modified plasmid pBR322 (Promega, Madison, Wis.) using standard molecular biology techniques. One replicon cell line (“SGR 11-7”) stably expresses HCV replicon RNA which consists of (i) the HCV 5′UTR fused to the first 12 amino acids of the capsid protein, (ii) the neomycin phosphotransferase gene (neo), (iii) the IRES from encephalomyocarditis virus (EMCV), and (iv) HCV NS2 to NS5B genes and the HCV 3′UTR. […]
EC50 values of single agent compounds and combinations were determined by HCV RNA detection using quantitative RT-PCR, according to the manufacturer's instructions, with a TaqMan® One-Step RT-PCR Master Mix Reagents Kit (Cat# AB 4309169, Applied Biosystems) on an ABI Model 7500 thermocycler. The TaqMan primers used for detecting and quantifying HCV RNA were obtained from Integrated DNA Technologies. HCV RNA was normalized to GAPDH RNA levels in drug-treated cells, which is detected and quantified using the Human GAPDH Endogenous Control Mix (Applied Biosystems, AB 4310884E). […] Chemical agent cytotoxicity is evaluated using an MTS assay according to the manufacturer's directions (Promega). […]
In general terms: In antiviral work, replicon cells carry a viral genome segment that copies itself.
One may read the EC50 as the concentration needed to bring the measured effect to its halfway point. Take `COC(=O)N[C@@H](C(=O)N1CCC[C@H]1c1ncc(C#Cc2ccc(-c3cnc([C@@H]4CCCN4C(=O)[C@H](NC(=O)OC)c4ccccc4)[nH]3)cc2)[nH]1)c1ccccc1` [Example 299]: the EC50 was < 1 nM.

Take `COC(=O)N[C@@H](C(=O)N1CCC[C@H]1c1ncc(CCc2ccc(-c3cnc([C@@H]4CCCN4C(=O)[C@H](NC(=O)OC)c4ccccc4)[nH]3)cc2)[nH]1)c1ccccc1` [Example 361]: the EC50 is < 1 nM.

In the case of `COC(=O)N[C@@H](C(=O)N1CCC[C@H]1c1nc(C2=CCC(c3ccc(-c4cnc([C@@H]5CCCN5C(=O)[C@H](NC(=O)OC)c5ccccc5)[nH]4)cc3)CC2)c[nH]1)c1ccccc1` (stereo partly drawn) [Example 1-b], the EC50 is < 1 nM.
